From patent publication US8580854B2, “Methods of suppression of rage gene expression and rage triggered inflammatory genes by selected age-inhibitors” (City of Hope, priority 2005, dated 2013)
Blank lines part the entries; values can stand above or below the compound they belong to.

Experiments:
THP-1 cells = assay: Cell viability test on THP-1 cells (cell counter, Trypan Blue); assay type: cell-based, human
Experimental: Cell Viability Test—THP-1 cells were seeded onto 6-well plates at a concentration of ˜5×10^5/ml in RPMI medium containing 10% FCS as above, and then incubated with various concentrations of LR-90 or control medium alone for 24 hr at 37° C., 5% CO2. After incubation, overall cell counts were measured using a cell counter (Coulter Z1 Cell and Particle Counter, Beckman Coulter Inc., Fullerton, Calif.), and the number of viable cells determined by hemocytometer counts of Trypan Blue—impermeable cells.

STZ-diabetic rats [1] = assay: Body weight, glycemic control and albuminuria in STZ-induced diabetic rats given LR-90 in drinking water for 32 weeks; assay type: in vivo, rat
Experimental: (§1) Animal studies were carried out in compliance with policies outlined in “The Guide for the care and Handling of Laboratory Animals” (NIH Publication No. 85-23), which have been approved by the City of Hope National Medical Center Animal Care Committee. Induction of diabetes by STZ and all other procedures were according to the previously published article on LR-90 (25), except that in the present study the diabetic rats under treatment were randomized in 5 groups of ten each: one diabetic control group (0 mg/L), one group receiving 2.5 mg/L, one group receiving 10 mg/L, a third group receiving 20 mg/L and a fourth group receiving 50 mg/L of LR-90 in drinking water (FIG. 1). Both plasma glucose and body weight were checked before administration of the drug, and no differences were detected among the two non-diabetic groups and five diabetic treatment groups. All animals were housed individually and were given free access to food (Purina rodent chow 5001, Ralston Purina, Richmond, Ind., USA) and water. Glycemic control and body weights were monitored periodically. In order to limit hyperglycemia and ensure that animals maintained body weight, diabetic animals received 3 IU of ultralente insulin (Humulin U, Eli Lilly, Indianapolis, Ind., USA) two to three times per week. The study was carried out over 32 weeks.
(§2) Blood (from the tail vein) and urine samples were collected from rats for glycemic control analysis and albuminuria measurements. Plasma glucose was measured using a glucose analyzer machine (YSI 2300 STAT, Yellowsprings, Ohio, USA). HbAlc concentration was measured by HPLC (BioRad DIAMAT, Hercules, Calif., USA). Total plasma triglycerides and cholesterol concentrations were quantified at the end of the study using the Vitros 250 Chemistry System (Johnson & Johnson, Rochester, N.Y., USA). Progression of renal dysfunction was assessed by measuring urinary albumin-to-creatinine ratio (ACR). Rats were housed in metabolic cages (Nalge, Rochester, N.Y., USA) for 24 hr and urine was collected in a collection beaker with several drops of toluene to inhibit microbial growth. Urinary albumin and creatinine concentrations were quantified immunologically using the Nephrat/Creatinine Companion kits (Exocell), and the ACR value was calculated for each rat.
(§3) At the end of study, the rats were weighed and anaesthetized with isofluorane and blood was drawn by heart puncture and transferred into heparinized and non-heparinized vacutainer tubes on ice. These blood samples were later centifuged for plasma and serum collection respectively, and stored at −70° C. until the time of analysis. Rats were killed by over-anesthetization and cardiac puncture and the kidneys were removed immediately, weighed, decapsulated and rinsed in PBS buffer. Sections of the kidneys were stored in 10% NBF for subsequent microscopic examinations and immunohistochemistry.
(§4) Statistical analyses were performed using Prism software (GraphPad, San Diego, Calif., USA). Unless otherwise indicated, data are presented as Means±Std. Group comparisons were analyzed using one-way ANOVA and subsequent post-hoc analysis by Tukey's test. A P value of less than 0.05 was considered statistically significant.

MCP-1 [2] = assay: Secreted MCP-1 levels of THP-1 cells by ELISA; assay type: cell-based, human; conditions: THP-1 supernatants
Experimental: Measurement of MCP-1 levels by ELISA. Supernatants of THP-1 cells (5×10^5 cells/ml) cultured in RPMI 1640 medium containing 2% FBS for 18 hrs under control or LR-90 treated conditions were used to assay secreted MCP-1 levels using the Quantikine ELISA kit. Medium alone without cells was incubated under the same conditions and used as blank control for the ELISA.
as §4, with “Data Analyses. Statistical” for “Statistical”

[3] = tested on: NADPH oxidase (gp91^phox subunit); assay: S100b-induced NADPH oxidase mRNA expression on THP-1 monocytes (RT-PCR); assay type: cell-based, human; conditions: THP-1, pre-treated 1 hr with 25-200 ug/ml, S100b 4 hr; statistically significant at 100 and 200 ug/ml
Experimental: (§5) Human THP-1 monocytic cells were obtained from the American Type Culture Collection and cultured as described (27) in RPMI 1640 medium supplemented with 10% fetal calf serum (FCS), glutamine, HEPES, streptomycin/penicillin ([…]/100 units/ml), 50 uM-mercaptoethanol, and 5.5 mM D-glucose in a 5% CO2 incubator at 37° C. THP-1 cells (5×10^5 cells/ml) in 4 ml of medium were pre-treated with various concentrations of LR-90 (0, 25, 50, 100 and 200 ug/ml; prepared in 20 mM stock solution in DMSO) for 1 hr. Control cells received DMSO vehicle only. Thereafter, S100b ([…]) was added and cells re-incubated for 4 hr. The cell suspension was then centrifuged at 200 g, the supernatant was removed and the cell pellet was frozen at −70° C. for subsequent RNA extraction.
(§6) RNA Extraction and Relative RT-PCR-Total RNA was isolated by the RNA-STAT-60 reagent method (Teltest, Friendswood, Tex.), and […] was used for the RT reaction using a Gene Amp RNA PCR kit. […] PCR products were fractionated on 2.5% agarose gels, photographed using Alpha Imager 2000, and analyzed with Quantity 1 software (Bio-Rad Laboratories, Hercules, Calif.). Results were expressed as fold stimulation over control after normalizing with paired 18S RNA gene.
(§7) Data Analyses. […] Group comparisons were analyzed using one-way ANOVA and subsequent post-hoc analysis by Tukey's test. […]

STZ-diabetic rats [4] = assay: Body weight, glycemic control and albuminuria in STZ-induced diabetic rats given LR-90 in drinking water for 32 weeks; assay type: in vivo, rat; remark: listed apart in the source
RAGE [5] = assay: S100b-induced RAGE mRNA expression on THP-1 monocytes (RT-PCR); assay type: cell-based, human; conditions: THP-1, pre-treated 1 hr with 25-200 ug/ml, S100b 4 hr; statistically significant at 100 and 200 ug/ml
Experimental: as §5, §6, §7

STZ-diabetic rats [6] = assay: Total plasma triglycerides and cholesterol in STZ-diabetic rats; assay type: in vivo, rat
Experimental: Animal studies were carried out in compliance with policies outlined in “The Guide for the care and Handling of Laboratory Animals” (NIH Publication No. 85-23), which have been approved by the City of Hope National Medical Center Animal Care Committee. Induction of diabetes by STZ and all other procedures were according to the previously published article on LR-90 (25), except that in the present study the diabetic rats under treatment were randomized in 5 groups of ten each: one diabetic control group (0 mg/L), […] (FIG. 1). Both plasma glucose and body weight were checked before administration of the drug, and no differences were detected among the two non-diabetic groups and five diabetic treatment groups. All animals were housed individually and were given free access to food (Purina rodent chow 5001, Ralston Purina, Richmond, Ind., USA) and water. Glycemic control and body weights were monitored periodically. In order to limit hyperglycemia and ensure that animals maintained body weight, diabetic animals received 3 IU of ultralente insulin (Humulin U, Eli Lilly, Indianapolis, Ind., USA) two to three times per week. The study was carried out over 32 weeks.
as §2

non-diabetic rats = assay: Non-diabetic control rats given LR-90 in drinking water for 32 weeks; assay type: in vivo, rat
Experimental: as §1, §2
At the end of study, the rats were weighed and anaesthetized with isofluorane and blood was drawn by heart puncture and transferred into heparinized and non-heparinized vacutainer tubes on ice. These blood samples were later centifuged for plasma and serum collection respectively, and stored at −70° C. until the time of analysis. […]
Statistical analyses were performed using Prism software (GraphPad, San Diego, Calif., USA). […] Group comparisons were analyzed using one-way ANOVA and subsequent post-hoc analysis by Tukey's test. […]

kidneys of diabetic rats = assay: Kidney histology (PAS and Trichrome staining) in STZ-diabetic rats; assay type: in vivo, rat
Experimental: as §3

RAGE [7] = assay: Immunohistochemical staining of renal RAGE protein expression; assay type: in vivo, rat; conditions: diabetic rats, increasing concentrations; 25 and 50 mg/L best inhibitory effects
Source text: (§8) Formalin-fixed […] embedded kidney sections ([…]) were mounted on slides and stained with 6D12 monoclonal anti-CML-AGE, polyclonal rabbit anti-RAGE and polyclonal goat anti-nitrotyrosine antibodies as described before (25). […] Similarly, RAGE protein expression in the glomeruli was visibly higher in diabetic rats compared with non-diabetic animals (FIG. 5).

CML-AGE = assay: Immunohistochemical staining of renal CML-AGE accumulation; assay type: in vivo, rat; conditions: diabetic rats, increasing concentrations; 25 and 50 mg/L best inhibitory effects
Source text: as §8

MCP-1 [8] = assay: S100b-induced MCP-1 mRNA expression on THP-1 monocytes (RT-PCR); assay type: cell-based, human; conditions: THP-1, pre-treated 1 hr with 25-200 ug/ml, S100b 4 hr; statistically significant at 100 and 200 ug/ml
Experimental: as §5, §6, §7

COX-2 = assay: S100b-induced COX-2 mRNA expression on THP-1 monocytes (RT-PCR); assay type: cell-based, human; conditions: THP-1, pre-treated 1 hr with 25-200 ug/ml, S100b 4 hr; statistically significant at 100 and 200 ug/ml
Experimental: as §5, §6, §7

[9] = tested on: rats fed a diet rich in cholesterol; conditions: cited from earlier work
hemoglobin = hemoglobin (Homo sapiens, UniProt P68871+P69905); conditions: synergistic with 2,3-bisphosphoglycerate; cited from earlier work
Chain of hemoglobin (P69905 2-142 limits assumed): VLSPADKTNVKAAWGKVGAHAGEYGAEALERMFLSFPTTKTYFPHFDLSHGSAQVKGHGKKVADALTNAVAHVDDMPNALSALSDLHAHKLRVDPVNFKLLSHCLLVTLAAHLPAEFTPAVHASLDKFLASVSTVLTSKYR
Chain of hemoglobin (P68871 2-147 limits assumed): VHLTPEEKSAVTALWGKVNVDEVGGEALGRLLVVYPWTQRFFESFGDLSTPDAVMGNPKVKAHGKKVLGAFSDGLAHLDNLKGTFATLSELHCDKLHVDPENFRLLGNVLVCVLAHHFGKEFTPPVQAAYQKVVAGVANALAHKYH

[10] = 2.5 mg per liter drinking water daily
[11] = 10 mg per liter drinking water daily
[12] = 50 mg per liter drinking water daily
[13] = 25 mg per liter drinking water daily
[14] = streptozotocin-induced diabetic rats, summary statement
[15] = non-diabetic rats, 50 mg per liter drinking water daily
[16] = marked difference at 25 and 50 mg/L

S100b-induced NADPH oxidase mRNA expression [3]: profoundly suppressed
Compound: CC(C)(Oc1ccc(NC(=O)Nc2ccc(Cc3ccc(NC(=O)Nc4ccc(OC(C)(C)C(=O)O)cc4)c(Cl)c3)cc2Cl)cc1)C(=O)O [LR-90]
cell viability (Trypan blue staining) (THP-1 cells): viable
cell counts after incubation (THP-1 cells; THP-1, same concentrations as in S100b experiments, 24 hr): normal and statistically similar to the untreated cells
ACR (urinary albumin-to-creatinine ratio) (STZ-diabetic rats [1]; [10]): 2.35 ± 1.96 mg/mg
HbA1c (STZ-diabetic rats [1]; [10]): 2.6 ± 0.6 %
Plasma Glucose (STZ-diabetic rats [1]; [10]): 29.9 ± 5.9 mmol/L
ACR (urinary albumin-to-creatinine ratio) (STZ-diabetic rats [1]; [11]): 2.60 ± 1.74 mg/mg
HbA1c (STZ-diabetic rats [1]; [11]): 3.0 ± 0.4 %
Plasma Glucose (STZ-diabetic rats [1]; [11]): 30.8 ± 2.9 mmol/L
HbA1c (STZ-diabetic rats [1]; [12]): 3.0 ± 0.2 %
Plasma Glucose (STZ-diabetic rats [1]; [12]): 31.6 ± 3.9 mmol/L
ACR (urinary albumin-to-creatinine ratio) (STZ-diabetic rats [1]; 50 mg per liter drinking water daily, p < 0.05 vs. diabetic rats): 1.39 ± 1.17 mg/mg
effect on HbAlc concentration (STZ-diabetic rats [1]; various doses): no affect
effect on plasma glucose concentration (STZ-diabetic rats [1]; various doses): no affect
MCP-1 protein expression (secreted, ELISA) (MCP-1 [2]): inhibited MCP-1 protein expression in a concentration-dependent manner
HbA1c (STZ-diabetic rats [4]; [13]): 2.9 ± 0.4 %
Plasma Glucose (STZ-diabetic rats [4]; [13]): 26.7 ± 2.4 mmol/L
ACR (urinary albumin-to-creatinine ratio) (STZ-diabetic rats [4]; 25 mg per liter drinking water daily, p < 0.05 vs. diabetic rats): 1.75 ± 1.43 mg/mg
rise in ACR (STZ-diabetic rats [4]; 25 and 50 mg/L doses statistically significant vs. untreated diabetic animals): inhibited the rise in ACR in almost dose-dependent manner
S100b-induced RAGE mRNA expression (RAGE [5]): profoundly suppressed
reduction in triglyceride concentration (STZ-diabetic rats [6]; diabetic rats, 25 mg/L): ≥ 60%
reduction in triglyceride concentration (STZ-diabetic rats [6]; diabetic rats, 50 mg/L): ≥ 60%
cholesterol concentration relative to non-diabetic animals (STZ-diabetic rats [6]; diabetic rats, all concentrations tested with the exception of 10 mg/L): nearly normalized
reduction in triglyceride concentration (STZ-diabetic rats [6]; diabetic rats, lowest concentration (25 mg/L) tested): ~50%
reduction of increased concentration of cholesterol (STZ-diabetic rats [6]; [14]): more than 50%
reduction of increased concentration of triglycerides (STZ-diabetic rats [6]; [14]): more than 50%
effect on lipid metabolism (non-diabetic rats; non-diabetic animals): no effect
ACR (urinary albumin-to-creatinine ratio) (non-diabetic rats; [15]): 0.42 ± 0.32 mg/mg
HbA1c (non-diabetic rats; [15]): 1.2 ± 0.1%
Plasma Glucose (non-diabetic rats; [15]): 8.9 ± 1.0 mmol/L
cell infiltration in the renal interstitium (kidneys of diabetic rats): prevented cell infiltration
mesangial expansion and basement membrane thickening of the kidneys (kidneys of diabetic rats): prevented mesangial expansion and basement membrane thickening
collagen deposition and tubular degeneration in the kidney glomeruli (Trichrome staining) (kidneys of diabetic rats; [16]): prevented collagen deposition and tubular degeneration
levels of PAS-positive materials in kidney glomeruli (kidneys of diabetic rats; [16]): reduced the levels of PAS-positive materials
RAGE protein expression in the glomeruli (RAGE [7]): visibly reduced
CML-AGE accumulation in kidney glomeruli and cortical tubules (CML-AGE): visibly reduced
S100b-induced MCP-1 mRNA expression (MCP-1 [8]): profoundly suppressed
S100b-induced COX-2 mRNA expression (COX-2): profoundly suppressed

Compound: N-4-(nitrophthalimido)phenoxyisobutyric acid [LR-16]
low-density lipoproteins (LDL) [9]: lower
serum cholesterol [9]: lower
effect on oxygen affinity of hemoglobin molecules (hemoglobin): allosteric effector
